Measured values from patent US20080176810A1, “Use of 3, 4', 5-Trihydroxy-Stilbene-3-Beta-D-glucoside in Prepartion of Medicines For Treating and/or Preventing Ischemic Heart Disease” (SHENZHEN NEPTUNUS PHARMACEUTICAL CO., LTD., priority 2004, published 2008).
Like-named read-outs stand apart in the source and are kept apart here.

Tests used:
[1] = system: isolated carotid and pulmonary arteries; settings: cited from earlier work
[2] = system: anesthetized dogs; experiment: Hemodynamics in anesthetized dogs, iv; assay type: in vivo
Experimental: Solvent control group, Isosorbide Dinitrate control group (0.4 mg/kg/h) and administration groups of 3,4′,5-trihydroxy-stilbene-3-[…]-D-glucoside at low (2.5 mg/kg), middle (5 mg/kg) or high (10 mg/kg) doses were set up for the test. Isosorbide Dinitrate control group were medicated by continuous intravenous infusion and other groups by intravenous injection.
After anesthetized with pentobarbital sodium, the dog was immobilized on its back. A femoral artery was separated for insertion of a catheter to record blood pressure of artery. A cardiac catheter was guided inversely from right common carotid artery into its left ventricle. Both catheters were connected to pressure transmitters. After pressure signals were amplified with carriers, they were input into an electrophysiolograph Powerlab system 8s, (ML785/8S AD Instruments, Australia). Needle electrodes were punctured into four limbs to monitor standard 2-lead ECG. A computer (chart4.12, ML785/8S, AD Instruments, Australia) were applied for real-time monitoring and storage of data. After operation, there were 30 minutes for stableness and then basic indexes were recorded before administration. Negative control group were given by […] injection of solvent at 2 ml/kg, while positive control group were intravenously infused at 0.4 mg/kg/h. […]
Indexes of observation included heart rate (HR), systolic blood pressure (BPs), diastolic blood pressure, mean blood pressure, left ventricular systolic pressure (LVSP), left ventricular diastolic pressure (LVDP), the maximum change rate of left ventricular systolic pressure rise and fall (±dp/dtmax), left ventricular end diastolic pressure and ECG.
Significance of differences was checked.

[3] = system: platelet aggregation; settings: 6~100 μmol/L TSG; cited from earlier work
[4] = TSG 2.5 mg/kg iv, Time c1-c5: 0,10,30,60,120 min, 10 min after dosing
[5] = TSG 2.5 mg/kg iv, Time c1-c5: 0,10,30,60,120 min, 30 min after dosing
[6] = TSG 2.5 mg/kg iv, Time c1-c5: 0,10,30,60,120 min, 60 min after dosing
[7] = TSG 2.5 mg/kg iv, Time c1-c5: 0,10,30,60,120 min, 120 min after dosing
[8] = TSG 2.5 mg/kg iv, Time c1-c5: 0,10,30,60,120 min, before dosing (0 min)
[9] = TSG 5 mg/kg iv, Time c1-c5: 0,15,30,60,120 min, 0 min, before dosing
[10] = TSG 5 mg/kg iv, Time c1-c5: 0,15,30,60,120 min, 15 min after dosing
[11] = TSG 5 mg/kg iv, Time c1-c5: 0,15,30,60,120 min, 30 min after dosing
[12] = TSG 5 mg/kg iv, Time c1-c5: 0,15,30,60,120 min, 60 min after dosing
[13] = TSG 5 mg/kg iv, Time c1-c5: 0,15,30,60,120 min, 120 min after dosing
[14] = TSG 10 mg/kg iv, Time c1-c5: 0,10,30,60,120 min, 0 min
[15] = TSG 10 mg/kg iv, Time c1-c5: 0,10,30,60,120 min, 10 min after dosing
[16] = TSG 10 mg/kg iv, Time c1-c5: 0,10,30,60,120 min, 30 min after dosing
[17] = TSG 10 mg/kg iv, Time c1-c5: 0,10,30,60,120 min, 60 min after dosing
[18] = TSG 10 mg/kg iv, Time c1-c5: 0,10,30,60,120 min, 120 min after dosing

3,4′,5-trihydroxy-stilbene-3-β-D-glucoside [TSG]
effect on vasoconstriction of noadrenalin ([1]; 1.37 mM): no noticeable effect | effect on vasoconstriction of noadrenalin ([1]; 1.71 mM): antagonistic effect | effect on isolated carotid and pulmonary arteries ([1]; 3.28 mM): no noticeable effect | effect on isolated carotid and pulmonary arteries ([1]; 5.12 mM): may relax | +dp/dt max [2, 4]: 829.1 ± 308.3 Kpa/s | BPd [2, 4]: 18.3 ± 2.3 KPa | BPm [2, 4]: 20.7 ± 2.1 KPa | BPs [2, 4]: 24.5 ± 2.0 KPa | HR [2, 4]: 160.4 ± 18.4 p/min | LVDP [2, 4]: 0.45 ± 2.40 KPa | LVEDP [2, 4]: 1.00 ± 2.33 KPa | LVSP [2, 4]: 25.2 ± 4.2 KPa | −dp/dt max [2, 4]: 777.3 ± 241.8 Kpa/s | +dp/dt max [2, 5]: 869.6 ± 235.9 Kpa/s | BPd [2, 5]: 18.5 ± 2.2 KPa | BPm [2, 5]: 20.8 ± 1.7 KPa | BPs [2, 5]: 24.7 ± 1.3 KPa | HR [2, 5]: 161.7 ± 18.0 p/min | LVDP [2, 5]: 0.28 ± 2.40 KPa | LVEDP [2, 5]: 1.11 ± 2.50 KPa | LVSP [2, 5]: 25.7 ± 3.8 KPa | −dp/dt max [2, 5]: 873.9 ± 236.8 Kpa/s | +dp/dt max [2, 6]: 993.9 ± 206.2 Kpa/s | BPd [2, 6]: 19.1 ± 2.5 KPa | BPm [2, 6]: 21.6 ± 2.0 KPa | BPs [2, 6]: 25.5 ± 1.6 KPa | HR [2, 6]: 171.1 ± 18.8 p/min | LVDP [2, 6]: 0.26 ± 2.35 KPa | LVEDP [2, 6]: 0.78 ± 2.37 KPa | LVSP [2, 6]: 26.5 ± 2.5 KPa | −dp/dt max [2, 6]: 905.9 ± 207.8 Kpa/s | +dp/dt max [2, 7]: 957.9 ± 190.0 Kpa/s | BPd [2, 7]: 18.1 ± 1.8 KPa | BPm [2, 7]: 20.2 ± 2.3 KPa | BPs [2, 7]: 23.7 ± 3.3 KPa | HR [2, 7]: 170.5 ± 16.1 p/min | LVDP [2, 7]: 0.50 ± 2.06 KPa | LVEDP [2, 7]: 1.09 ± 2.16 KPa | LVSP [2, 7]: 26.7 ± 2.3 KPa | −dp/dt max [2, 7]: 852.5 ± 159.6 Kpa/s | +dp/dt max [2, 8]: 853.1 ± 321.1 Kpa/s | BPd [2, 8]: 18.5 ± 1.7 KPa | BPm [2, 8]: 21.1 ± 2.0 KPa | BPs [2, 8]: 25.3 ± 3.0 KPa | HR [2, 8]: 163.7 ± 21.1 p/min | LVDP [2, 8]: 0.39 ± 2.20 KPa | LVEDP [2, 8]: 1.14 ± 2.18 KPa | LVSP [2, 8]: 24.9 ± 4.0 KPa | −dp/dt max [2, 8]: 772.0 ± 201.0 Kpa/s | +dp/dt max [2, 9]: 822.6 ± 353.8 Kpa/s | BPd [2, 9]: 18.9 ± 4.2 KPa | BPm [2, 9]: 21.1 ± 4.7 KPa | BPs [2, 9]: 25.4 ± 6.4 KPa | HR [2, 9]: 177.2 ± 35.5 p/min | LVEDP [2, 9]: 1.05 ± 1.34 KPa | LVSP [2, 9]: 24.1 ± 4.4 KPa | −dp/dt max [2, 9]: 866.2 ± 350.7 Kpa/s | +dp/dt max [2, 10]: 793.8 ± 299.0 Kpa/s | BPd [2, 10]: 18.7 ± 4.4 KPa | BPs [2, 10]: 25.4 ± 5.8 KPa | HR [2, 10]: 171.0 ± 35.6 p/min | LVEDP [2, 10]: 1.08 ± 1.62 KPa | LVSP [2, 10]: 24.3 ± 4.6 KPa | −dp/dt max [2, 10]: 812.2 ± 308.9 Kpa/s | +dp/dt max [2, 11]: 855.5 ± 296.5 Kpa/s | BPd [2, 11]: 19.2 ± 4.0 KPa | BPm [2, 11]: 21.7 ± 4.2 KPa | BPs [2, 11]: 26.1 ± 5.3 KPa | HR [2, 11]: 170.0 ± 35.5 p/min | LVEDP [2, 11]: 1.19 ± 1.76 KPa | LVSP [2, 11]: 24.6 ± 4.6 KPa | −dp/dt max [2, 11]: 912.3 ± 318.8 Kpa/s | +dp/dt max [2, 12]: 936.1 ± 199.9 Kpa/s | BPd [2, 12]: 19.8 ± 3.3 KPa | BPm [2, 12]: 22.1 ± 3.3 KPa | BPs [2, 12]: 26.6 ± 4.1 KPa | HR [2, 12]: 178.0 ± 29.5 p/min | LVEDP [2, 12]: 0.99 ± 1.19 KPa | LVSP [2, 12]: 25.6 ± 3.0 KPa | −dp/dt max [2, 12]: 891.5 ± 261.8 Kpa/s | +dp/dt max [2, 13]: 921.4 ± 327.1 Kpa/s | BPd [2, 13]: 18.8 ± 4.4 KPa | BPm [2, 13]: 21.0 ± 4.4 KPa | BPs [2, 13]: 25.0 ± 5.0 KPa | HR [2, 13]: 170.2 ± 37.1 p/min | LVEDP [2, 13]: 0.98 ± 1.42 KPa | LVSP [2, 13]: 25.1 ± 5.2 KPa | −dp/dt max [2, 13]: 872.0 ± 291.7 Kpa/s | +dp/dt max [2, 14]: 1455.5 ± 637.7 Kpa/s | BPd [2, 14]: 19.6 ± 3.7 KPa | BPm [2, 14]: 22.5 ± 4.8 KPa | BPs [2, 14]: 28.5 ± 7.5 KPa | HR [2, 14]: 212.5 ± 31.3 p/min | LVSP [2, 14]: 30.1 ± 5.9 KPa | −dp/dt max [2, 14]: 1164.1 ± 488.8 Kpa/s | +dp/dt max [2, 15]: 1646.2 ± 807.8 Kpa/s | BPd [2, 15]: 21.0 ± 5.1 KPa | BPm [2, 15]: 24.5 ± 5.9 KPa | BPs [2, 15]: 32.4 ± 8.2 KPa | HR [2, 15]: 209.7 ± 33.4 p/min | LVSP [2, 15]: 32.4 ± 6.3 KPa | −dp/dt max [2, 15]: 1200.6 ± 447.6 Kpa/s | +dp/dt max [2, 16]: 1623.9 ± 729.5 Kpa/s | BPd [2, 16]: 21.4 ± 5.5 KPa | BPm [2, 16]: 25.1 ± 5.9 KPa | BPs [2, 16]: 33.2 ± 8.5 KPa | HR [2, 16]: 210.2 ± 33.8 p/min | LVSP [2, 16]: 32.4 ± 6.8 KPa | −dp/dt max [2, 16]: 1120.4 ± 357.8 Kpa/s | +dp/dt max [2, 17]: 1518.5 ± 708.1 Kpa/s | BPd [2, 17]: 20.6 ± 4.8 KPa | BPm [2, 17]: 24.4 ± 5.1 KPa | BPs [2, 17]: 33.6 ± 5.5 KPa | HR [2, 17]: 207.1 ± 38.1 p/min | LVSP [2, 17]: 31.7 ± 5.5 KPa | −dp/dt max [2, 17]: 1189.6 ± 461.6 Kpa/s | +dp/dt max [2, 18]: 1266.6 ± 334.8 Kpa/s | BPd [2, 18]: 20.2 ± 3.0 KPa | BPm [2, 18]: 22.7 ± 3.0 KPa | BPs [2, 18]: 29.0 ± 4.8 KPa | HR [2, 18]: 205.6 ± 50.2 p/min | LVSP [2, 18]: 29.5 ± 2.7 KPa | −dp/dt max [2, 18]: 1068.5 ± 208.6 Kpa/s | platelet aggregation and production of thromboxane B2 induced by arachidonic acid, adenosine diphosphate and adrenalin [3]: inhibited
